Counter-ions that a name gives are not always drawn.

The target in the test is T1, kinase domain of human CHK-1 (KH289) (Homo sapiens, UniProt O14757).
T1 construct: kinase domain of human CHK-1 (KH289), amino acid residues 1-289; made in house; host or cells: baculovirus (Bac-to-Bac); Hi-S insect cells for protein production, Sf9/Sf21 for virus amplification
T1 sequence (O14757 1-289): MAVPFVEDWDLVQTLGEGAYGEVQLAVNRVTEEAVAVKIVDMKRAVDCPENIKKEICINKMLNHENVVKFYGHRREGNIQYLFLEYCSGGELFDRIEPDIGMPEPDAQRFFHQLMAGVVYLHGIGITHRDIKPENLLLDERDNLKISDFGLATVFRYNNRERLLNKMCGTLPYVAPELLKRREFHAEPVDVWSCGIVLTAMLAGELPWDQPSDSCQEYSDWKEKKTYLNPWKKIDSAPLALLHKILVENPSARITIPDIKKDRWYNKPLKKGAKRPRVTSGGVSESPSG
Description: CHK-1 coupled spectrophotometric enzyme assay (Syntide-2, PK/LDH, NADH oxidation). Format: biochemical. The settings on record: 10 nM KH289, 0.15 mM ATP, 0.125 mM Syntide-2, pH 7.5. The source says: As previously detailed in European Patent Application No. 1 096 014 A2 (filed Oct. 31, 2000), the C-terminally His-tagged kinase domain of human CHK-1 (KH289), amino acid residues 1-289, can be expressed using the baculovirus/insect cell system. […] The Bac-to-Bac system (Life Technologies) can be used to generate recombinant baculovirus for the expression of KH289 as per instructions. Recombinant viruses can be confirmed by PCR for the presence of CHK-1 cDNA insertion. […] Sf9 insect cells (Invitrogen, Carlsbad, Calif., USA) can be used for initial amplification of recombinant virus stock. High titer stocks of recombinant viruses can be generated by 2 to 3 rounds of amplification using Sf21 insect cells. Hi-S insect cells (Invitrogen, Carlsbad, Calif., USA) can be used for protein production. Both Sf9 and Hi-S cell lines can be adapted to grow in insect medium containing 1% Fetal Bovine Serum (Life Technologies, Grand Island, N.Y., USA). The viral stock was stored at […] and used for large-scale protein production within 2 months to avoid viral instability. For protein production, infected Hi-S cells can be harvested by centrifugation and stored at −80° C. From these cells, 6X-His tagged KH289 (identified by SDS-PAGE) can be obtained after purification and can be flash-frozen in liquid N2 and stored at −80° C.
As previously detailed in European Patent Application No. 1 096 014 A2 (filed Oct. 31, 2000), the enzymatic activity of a kinase can be measured by its ability to catalyze the transfer of a phosphate residue from a nucleoside triphosphate to an amino acid side chain in a selected protein target. The conversion of ATP to ADP generally accompanies the catalytic reaction. Herein, a synthetic substrate peptide, Syntide-2, having amino acid sequence […] can be utilized. The production of ADP from ATP that accompanies phosphoryl transfer to the substrate can be coupled to oxidation of NADH using phosphoenolpyruvate (PEP) through the actions of pyruvate kinase (PK) and lactic dehydrogenase (LDH). The oxidation of NADH can be monitored by following the decrease of absorbance at 340 nm (e340=6.22 cm-1 mM-1) using a HP8452 spectrophotometer. Typical reaction solutions contained: 4 mM PEP, 0.15 mM NADH, 28 units of LDH/mL, 16 units of PK/mL, 3 mM DTT, 0.125 mM Syntide-2, 0.15 mM ATP and 25 mM MgCl2 in 50 mM TRIS pH 7.5; 400 mM NaCl. Assays can be initiated with 10 nM of kinase domain of CHK-1, KH289. Ki values can be determined by measuring initial enzyme activity in the presence of varying concentrations of inhibitors. The data can be analyzed using Enzyme Kinetic and Kaleidagraph software.
In turn, `O=C1NN=Cc2c[nH]c3cc(OCC4CC4c4ccccc4)cc1c23` (stereo not shown) [Example 275, 8-[(2-phenylcyclopropyl)methoxy]-1,5-dihydro-6H-[1,2]diazepino[4,5,6-cd]indol-6-one] came in with an inhibition constant Ki of 7 nM.
On to `Cn1cnc(-c2[nH]c3cc(NC(=O)[C@H](N)CCc4ccccc4)cc4c3c2C=NNC4=O)c1` [Example 266, (2R)-2-Amino-N-[2-(1-methyl-1H-imidazol-4-yl)-6-oxo-5,6-dihydro-1H-[1,2]diazepino[4,5,6-cd]indol-8-yl]-4-phenyl-butylamide (hydrochloric salt)], for which the Ki is 0.29 nM.
For `N[C@@H](C(=O)Nc1cc2c3c(c[nH]c3c1)C=NNC2=O)C1Cc2ccccc2C1` [Example 257, (2R)-2-Amino-2-indan-2-yl-N-(6-oxo-5,6-dihydro-1H-[1,2]diazepino[4,5,6-cd]indol-8-yl)-acetamide (hydrochloric salt)], the inhibitory constant (Ki) came to 0.27 nM.
Regarding `Cc1cc(-c2[nH]c3cc(NC(=O)[C@H](N)CCc4ccccc4)cc4c3c2C=NNC4=O)on1` [Example 268, (2R)-2-Amino-N-[2-(3-methyl-isoxazol-5-yl)-6-oxo-5,6-dihydro-1H-[1,2]diazepino[4,5,6-cd]indol-8-yl]-4-phenyl-butylamide (hydrochloric salt)], affinity was put at a Ki of 0.01 nM. This Ki is about 27-fold lower than that of the compound before.
In the case of `Cn1cnc(-c2[nH]c3cc(NC(=O)[C@H](N)C4CCCCC4)cc4c3c2C=NNC4=O)c1` [Example 271, (2R)-2-Amino-2-cyclohexyl-N-[2-(1-methyl-1H-imidazol-4-yl)-6-oxo-5,6-dihydro-1H-[1,2]diazepino[4,5,6-cd]indol-8-yl]-acetamide (hydrochloric salt)], affinity was put at a Ki of 1.2 nM.
The compound `N[C@@H](C(=O)Nc1cc2c3c(c(Cl)[nH]c3c1)C=NNC2=O)C1Cc2ccccc2C1` [Example 265, (2R)-2-Amino-N-(2-chloro-6-oxo-5,6-dihydro-1H-[1,2]diazepino[4,5,6-cd]indol-8-yl)-2-indan-2-yl-acetamide (hydrochloric salt)] gave a Ki of 0.73 nM.
The compound `Cc1ccc(-c2[nH]c3cc(NC(=O)[C@H](N)CCc4ccccc4)cc4c3c2C=NNC4=O)cn1` [Example 267, (2R)-2-Amino-N-[2-(6-methyl-pyridin-3-yl)-6-oxo-5,6-dihydro-1H-[1,2]diazepino[4,5,6-cd]indol-8-yl]-4-phenyl-butylamide (hydrochloric salt)] came in with a Ki of 0.78 nM.
Next, `Cn1cc(-c2[nH]c3cc(NC(=O)[C@H](N)COc4ccccc4)cc4c3c2C=NNC4=O)cn1` [Example 264, (2R)-2-Amino-N-[2-(1-methyl-1H-pyrazol-4-yl)-6-oxo-5,6-dihydro-1H-[1,2]diazepino[4,5,6-cd]indol-8-yl]-3-phenoxy-propionamide (hydrochloric salt)]: 0.48 nM; `N[C@H](CCc1ccccc1)C(=O)Nc1cc2c3c(c(Cl)[nH]c3c1)C=NNC2=O` [Example 261, (2R)-2-Amino-N-(2-chloro-6-oxo-5,6-dihydro-1H-[1,2]diazepino[4,5,6-cd]indol-8-yl)-4-phenyl-butylamide (hydrochloric salt)]: 2 nM.
Under `Cc1cc(-c2[nH]c3cc(NC(=O)[C@H](N)C4Cc5ccccc5C4)cc4c3c2C=NNC4=O)on1` [Example 269, (2R)-2-Amino-2-indan-2-yl-N-[2-(3-methyl-isoxazol-5-yl)-6-oxo-5,6-dihydro-1H-[1,2]diazepino[4,5,6-cd]indol-8-yl]-acetamide] stands 0.15 nM; under `N[C@@H](C(=O)Nc1cc2c3c(c(-c4ccccn4)[nH]c3c1)C=NNC2=O)C1Cc2ccccc2C1` [Example 278, (2R)-2-amino-2-(2,3-dihydro-1H-inden-2-yl)-N-(6-oxo-2-pyridin-2-yl-5,6-dihydro-1H-[1,2]diazepino[4,5,6-cd]indol-8-yl)acetamide (hydrochloric salt)], 0.47 nM.
`Cc1ccc(-c2[nH]c3cc(NC(=O)[C@H](N)C4Cc5ccccc5C4)cc4c3c2C=NNC4=O)cn1` [Example 260, (2R)-2-Amino-2-indan-2-yl-N-[2-(6-methyl-pyridin-3-yl)-6-oxo-5,6-dihydro-1H-[1,2]diazepino[4,5,6-cd]indol-8-yl]-acetamide (hydrochloric salt)] registered an inhibitory constant (Ki) of 0.42 nM.
`N[C@H](CCc1ccccc1)C(=O)Nc1cc2c3c(c[nH]c3c1)C=NNC2=O` [Example 276, (2R)-2-Amino-N-(6-oxo-5,6-dihydro-1H-[1,2]diazepino[4,5,6-cd]indol-8-yl)-4-Phenyl-butylamide (hydrochloric salt)] showed an inhibition constant Ki of 4.5 nM.
`N[C@H](CCc1ccccc1)C(=O)Nc1cc2c3c(c(-c4ccccn4)[nH]c3c1)C=NNC2=O` [Example 277, (2R)-2-amino-N-(6-oxo-2-pyridin-2-yl-5,6-dihydro-1H-[1,2]diazepino[4,5,6-cd]indol-8-yl)-4-phenylbutanamide]: affinity was put at a Ki of 0.55 nM. This Ki lies about 8.2-fold lower than the previous one.
In turn, `Cn1cc(-c2[nH]c3cc(NC(=O)[C@]4(N)C[C@H]4c4ccccc4)cc4c3c2C=NNC4=O)cn1` [Example 262, (1S,2S)-1-Amino-2-phenyl-cyclopropanecarboxylic acid [2-(1-methyl-1H-Pyrazol-4-yl)-6-oxo-5,6-dihydro-1H-[1,2]diazepino[4,5,6-cd]indol-8-yl]-amide (hydrochloric salt)] yielded a Ki of 0.3 nM.
Consider `Cn1cc(-c2[nH]c3cc(NC(=O)[C@H](N)CCc4ccccc4)cc4c3c2C=NNC4=O)cn1` [Example 256, (2R)-2-Amino-N-[2-(1-methyl-1H-pyrazol-4-yl)-6-oxo-5,6-dihydro-1H-[1,2]diazepino[4,5,6-cd]indol-8-yl]-4-phenyl-butylamide (hydrochloric salt)], for which the inhibitory constant (Ki) came out at 0.78 nM.
The compound `N[C@H](CCc1ccccc1)C(=O)Nc1cc2c3c(c(Br)[nH]c3c1)C=NNC2=O` [Example 259, (2R)-2-Amino-N-(2-bromo-6-oxo-5,6-dihydro-1H-[1,2]diazepino[4,5,6-cd]indol-8-yl)-4-phenyl-butylamide (hydrochloric salt)] gave an inhibition constant (Ki) of 0.99 nM.
Next, `Cn1cc(-c2[nH]c3cc(NC(=O)CNCc4ccccc4)cc4c3c2C=NNC4=O)cn1` [Example 270, 2-Benzylamino-N-[2-(1-methyl-1H-pyrazol-4-yl)-6-oxo-5,6-dihydro-1H-[1,2]diazepino[4,5,6-cd]indol-8-yl]-acetamide (hydrochloric salt)]: 0.79 nM; `CN(CC(=O)Nc1cc2c3c(c(-c4cnn(C)c4)[nH]c3c1)C=NNC2=O)Cc1ccccc1` [Example 274, 2-(Benzyl-methyl-amino)-N-[2-(1-methyl-1H-pyrazol-4-yl)-6-oxo-5,6-dihydro-1H-[1,2]diazepino[4,5,6-cd]indol-8-yl]-acetamide]: 2 nM.
As for `Cn1cc(-c2[nH]c3cc(NC(=O)[C@H](N)COc4ccc(F)cc4)cc4c3c2C=NNC4=O)cn1` [Example 263, (2R)-2-Amino-3-(4-fluoro-phenoxy)-N-[2-(1-methyl-1H-pyrazol-4-yl)-6-oxo-5,6-dihydro-1H-[1,2]diazepino[4,5,6-cd]indol-8-yl]-propionamide (hydrochloric salt)], the affinity, expressed as Ki, was 0.43 nM.
As for `Cn1cc(-c2[nH]c3cc(NC(=O)[C@H](N)C4Cc5ccccc5C4)cc4c3c2C=NNC4=O)cn1` [Example 255, (2R)-2-Amino-2-indan-2-yl-N-[2-(1-methyl-1H-pyrazol-4-yl)-6-oxo-5,6-dihydro-1H-[1,2]diazepino[4,5,6-cd]indol-8-yl]-acetamide (hydrochloric salt)], the affinity corresponds to a Ki of 0.14 nM.
“(2R)-2-Amino-2-indan-2-yl-N-[2-(1-methyl-1H-imidazol-4-yl)-6-oxo-5,6-dihydro-1H-[1,2]diazepino[4,5,6-cd]indol-8-yl]-acetamide (hydrochloric salt) [Example 272]” displayed an inhibition constant (Ki) of 0.2 nM.

Broadly, the Ki is a measure of affinity in units of concentration, obtained from inhibition or displacement. Low values mean a stronger hold on the target, high ones a looser hold on the target.

(Values after patent US7462713B2, “Tricyclic compounds protein kinase inhibitors for enhancing the efficacy of anti-neoplastic agents and radiation therapy” (Agouron Pharmaceuticals, Inc., priority 2003, dated 2008).)
